Data taken from the METLIN SMRT retention time set (Domingo-Almenara et al. 2019).

Experiment: gradient 5% acetonitrile 3 min, to 50% in 2 min, to 85% in 15 min, held 3 min, 100 µL/min
Settings: column: Zorbax Extend-C18 2.1 x 50 mm; eluents: water / acetonitrile, 0.1% formic acid
Outline: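 Standards, all pure, were combined into mixtures of ~100 molecules and run at 100 μL/min on a Zorbax Extend-C18 column (2.1 × 50 mm, 1.8 μm) with water and acetonitrile, each containing 0.1% formic acid. A coupled quadrupole time-of-flight mass spectrometer operated in positive and negative ionization mode. Retention time values come from computationally picked adduct peaks, each inspected manually.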

RP-LC retention time [s] | Structure (SMILES)
814 | CN(C)S(=O)(=O)c1ccc(-c2nnc(C(=O)NCc3ccc4c(c3)OCO4)o2)cc1
984 | Cc1cccc(NC(=O)Nc2ccc3c(c2)CCN3S(=O)(=O)c2ccccc2)c1C
559 | CCC(=O)N1CCc2c(sc3ncnc(NCc4ccccn4)c23)C1
777 | COc1ccc(NC(=O)N2CCC(C(=O)NCc3csc(-c4ccccc4)n3)CC2)c(OC)c1
724 | Cc1ccccc1CC(=O)Nc1cc(-c2nnc(C3CC3)o2)sc1C
1320 | Cc1ccc(C)c(-c2cc3c(=O)n(Cc4nc(-c5ccc(Br)cc5)no4)ncn3n2)c1
830 | CCCn1cc(CCNS(=O)(=O)c2ccccc2C)c2cccnc21
738 | COc1ccc(OC)c(NC(=O)Cc2csc3nc(-c4ccc(OC)c(OC)c4)cn23)c1
595 | O=C(Nc1ccccc1Br)N1CCN(CCn2cnc3cccnc32)CC1
739 | Clc1ccc(-c2csc(N3CCN(c4nc(-c5ccccc5)cs4)CC3)n2)cc1
926 | CC(C)CC(=O)N1CC(c2nc(-c3ccc(F)cc3)no2)C2(CCOCC2)C1 (centres undefined)
1120 | COc1ccc(NS(=O)(=O)c2cc(-c3cc(C(F)(F)F)on3)sc2C)cc1
1100 | COCCCn1c(=O)c2ccccc2n(Cc2nc(-c3cccc(Cl)c3)no2)c1=O
849 | CCCc1noc(-c2ccnc(-n3cnc(C(=O)NC(C)C)c3)c2)n1
876 | Cn1cc2c3c(cccc31)CN(C(=O)c1cccs1)CC2
1330 | CC1(C)CC(=O)c2c(nc(N3CCN(c4ncccn4)CC3)nc2Nc2ccccc2)C1
1100 | CNC(=O)c1c(NC(=O)COc2ccc(Cl)cc2)sc2c1CCC2
700 | COCCc1noc(CC2CCOC3(CCN(C(=O)NC(C)(C)C)CC3)C2)n1 (centres undefined)
597 | CCC1CCCCN1CCNC(=O)Cn1c(=O)n(-c2ccccc2)c2ncccc21 (centres undefined)
728 | CC(C)C(=O)N1CCc2ccc([N+](=O)[O-])cc2C1
819 | Cc1ccccc1Cn1nnc2cc(C(=O)N3CCN(c4ncccn4)CC3)ccc21

RP-LC retention time [s] | Structure (SMILES)
1080 | Fc1ccc(-c2noc(-c3ccc(N4CCOCC4)nc3)n2)cc1
632 | O=C(Nc1ccc2c(c1)CN(C(=O)C1CC1)CC2)NC1CC1
1080 | Cc1ccc(S(=O)(=O)N2CC=C(c3cn(C)c4ncccc34)CC2)cc1C
578 | COc1ccc(OCc2nc3ccc(C)cc3[nH]2)cc1
808 | CCc1ccc(Nc2nc(C(=O)NCc3ccco3)nc3ccccc23)cc1
914 | CC(C)n1c(N2CCCN(C(=O)COc3ccc(Cl)cc3)CC2)cc(=O)n(C(C)C)c1=O
882 | Cc1nc(-c2cc(S(=O)(=O)N3CCC(C(=O)NCc4cccs4)CC3)c(C)s2)no1
609 | CCc1ccc(NC(=O)Nc2ccc3nc(N4CCN(C)CC4)cc(C)c3c2)cc1
773 | O=c1c(=O)n(-c2ccccc2)ccn1Cc1nc(-c2ccc3c(c2)OCO3)no1
852 | COc1cccc(-c2noc(CCn3nc(-c4ccc5c(c4)OCO5)ccc3=O)n2)c1OC
936 | Cc1cccc(S(=O)(=O)N2CCC(C)(C(=O)NCc3ccc(F)cc3)CC2)c1
739 | Cc1ccc(C(C)C)cc1S(=O)(=O)Nc1cccc(-c2cn3ccccc3n2)c1
881 | Cc1ccc(-c2nnc(N3CCC(C(=O)NCCC(C)C)CC3)o2)cc1
799 | CNC(=O)N1c2ccccc2CC1c1nc(C(C)C)no1 (centres undefined)
817 | Cn1ncc2c3ccccc3n(CCCC(=O)NCc3cccs3)c2c1=O
602 | Cn1c2c(c(=O)n3ncc(C(=O)N4CCN(c5ccccn5)CC4)c13)CN(Cc1ccccc1)CC2
694 | CCOCCCNC(=O)CN1C(=O)C2CCCCN2c2ccc(C(=O)N3CCCC3)cc21 (centres undefined)
885 | CN(CCc1noc(COc2ccccc2F)n1)C(=O)c1c(F)cccc1F
896 | Cc1ccc2[nH]cc(CCNC(=O)CCC(=O)N3CCSc4c3c(C)nn4-c3ccccc3)c2c1
588 | COc1cccc(NC(=O)N2CCN(c3ccc(Nc4cc(C)ccn4)nn3)CC2)c1
836 | CCc1noc(NC(C)=O)c1-c1ccc(C)c(S(=O)(=O)NCc2ccccc2)c1

RP-LC retention time [s] | Structure (SMILES)
911 | COc1ccc(N2C(=O)C3N=NN(Cc4nc(-c5ccc6c(c5)OCO6)no4)C3C2=O)cc1 (centres undefined)
728 | CCN1CCN(C2CCN(C(=O)c3cc(C)cc(C)c3)CC2)C1=O
955 | CC(C)OC(=O)CCC/C=C\C[C@@H]1[C@@H](/C=C/[C@@H](O)COc2cccc(C(F)(F)F)c2)[C@H](O)C[C@@H]1O
644 | COC(=O)CNC(=O)N1CCC(N2CCN(Cc3ccc(C)cc3)C(=O)C2=O)CC1
907 | CCC(C)NC(=O)c1cn(-c2cc(-c3nc(C(C)C)no3)ccn2)cn1 (centres undefined)
810 | Cc1c(C(=O)NCC2CC2)cnn1-c1ccc(-c2nc(C3CC3)no2)cn1
991 | COc1cccc(-c2nnc(Cc3nc(-c4cccc(F)c4)no3)o2)c1
832 | O=C(Cn1cccc(-c2nc(-c3ccc(F)cc3)no2)c1=O)Nc1ccc2c(c1)OCCO2
595 | CC(C)(C)c1ccc(-c2nc(NCCCN3CCOCC3)c3ccccc3n2)cc1
1350 | Cc1cc(C)c(S(=O)(=O)N2CCC(c3noc(-c4ccccc4)n3)CC2)c(C)c1
623 | O=C(O)CCCCCNc1nc(-c2ccccc2)nc2ccccc12
848 | Cc1nc2cc(N3CC(C(=O)N4CCN(c5ccccc5C)CC4)CC3=O)ccc2o1 (centres undefined)
629 | O=C(O)c1nnn(-c2ccc(F)cc2)c1-c1cccnc1
859 | Cc1ccc(S(=O)(=O)N2CCC(n3cnnc3-c3ccccc3)CC2)cc1C
612 | CCc1nnc(C2CN(C)CC23CCN(S(=O)(=O)c2cc(F)ccc2OC)CC3)o1 (centres undefined)
737 | CCNC(=O)c1sc2nc(-c3cccc(C)c3)c(NCCOC)n2c1C
937 | Fc1ccc(Cn2cc(-c3noc(-c4ccc5c(c4)OCO5)n3)nn2)cc1
996 | CCOc1ccccc1NC(=O)C1CCN(S(=O)(=O)c2cc(-c3noc(C)n3)cs2)CC1
875 | CCCn1c(-c2cccc(C(=O)NCc3ccc(Br)cc3)c2)nc2cccnc21
729 | CCCc1noc(-c2cccnc2N2CCCN(Cc3ccc(F)cc3)CC2)n1
930 | COc1ccccc1-c1nc(C2CCN(C(=O)c3cc4ccccc4[nH]3)CC2)no1

Structure (SMILES) | RP-LC retention time [s]
O=C1C[C@@H]2OCC=C3C[N+]4([O-])CC[C@]56c7ccccc7N1[C@H]5[C@H]2[C@H]3C[C@@H]64 (some centres undefined) | 639
